Legend:
[1] = tested on: Phosphatidylinositol 4,5-bisphosphate 3-kinase catalytic subunit alpha isoform (Homo sapiens), P42336 [M1043I]
[2] = biological target: Macrophage colony-stimulating factor 1 receptor (Homo sapiens) (UniProt P07333)
[3] = biological target: Cyclin-dependent kinase-like 2 (Homo sapiens) (UniProt Q92772)
[4] = biological target: cGMP-dependent protein kinase 2 (Homo sapiens) (UniProt Q13237)
[5] = tested on: Receptor-type tyrosine-protein kinase FLT3 (Homo sapiens), P36888 [D835H]
[6] = biological target: BMP-2-inducible protein kinase (Homo sapiens) (UniProt Q9NSY1)
Chain of BMP-2-inducible protein kinase (Homo sapiens) (Q9NSY1 whole entry, looked up): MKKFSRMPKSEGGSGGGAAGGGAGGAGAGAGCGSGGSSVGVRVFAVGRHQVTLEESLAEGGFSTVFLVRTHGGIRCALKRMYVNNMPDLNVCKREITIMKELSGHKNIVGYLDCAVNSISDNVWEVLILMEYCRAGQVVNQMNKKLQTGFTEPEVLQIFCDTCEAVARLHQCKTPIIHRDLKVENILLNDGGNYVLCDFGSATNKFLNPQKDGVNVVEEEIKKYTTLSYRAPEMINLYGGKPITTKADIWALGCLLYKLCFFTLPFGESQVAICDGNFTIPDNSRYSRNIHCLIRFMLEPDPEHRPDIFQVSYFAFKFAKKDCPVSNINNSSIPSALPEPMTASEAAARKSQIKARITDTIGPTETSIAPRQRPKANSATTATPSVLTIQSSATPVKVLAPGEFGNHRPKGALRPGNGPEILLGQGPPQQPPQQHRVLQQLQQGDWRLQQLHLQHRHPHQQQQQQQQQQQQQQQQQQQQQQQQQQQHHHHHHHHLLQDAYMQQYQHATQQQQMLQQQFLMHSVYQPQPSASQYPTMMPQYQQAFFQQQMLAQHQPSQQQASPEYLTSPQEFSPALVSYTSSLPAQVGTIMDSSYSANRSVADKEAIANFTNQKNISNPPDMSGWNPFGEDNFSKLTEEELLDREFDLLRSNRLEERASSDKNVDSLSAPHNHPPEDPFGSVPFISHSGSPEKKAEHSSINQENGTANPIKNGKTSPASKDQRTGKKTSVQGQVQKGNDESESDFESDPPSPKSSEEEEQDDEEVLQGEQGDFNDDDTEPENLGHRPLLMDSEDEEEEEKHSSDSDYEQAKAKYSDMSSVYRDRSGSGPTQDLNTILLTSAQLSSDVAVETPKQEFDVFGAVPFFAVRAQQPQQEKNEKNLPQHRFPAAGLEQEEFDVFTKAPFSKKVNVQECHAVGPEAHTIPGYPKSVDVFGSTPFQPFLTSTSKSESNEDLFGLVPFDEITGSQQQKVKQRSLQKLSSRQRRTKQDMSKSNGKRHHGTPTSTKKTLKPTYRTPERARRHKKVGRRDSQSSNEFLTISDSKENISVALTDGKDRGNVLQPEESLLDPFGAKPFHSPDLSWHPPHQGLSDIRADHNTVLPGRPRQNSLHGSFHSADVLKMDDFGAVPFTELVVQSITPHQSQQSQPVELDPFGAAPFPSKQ

[7] = biological target: AP2-associated protein kinase 1 (Homo sapiens) (UniProt Q2M2I8)
[8] = tested on: Serine/threonine-protein kinase B-raf (Homo sapiens), P15056 [V600E]
[9] = biological target: Muscarinic acetylcholine receptor M2 (Homo sapiens) (UniProt P08172); conditions: Compound concentration 10.0 uM
[10] = biological target: Mitogen-activated protein kinase 9 (Homo sapiens) (UniProt P45984)
[11] = biological target: Serine/threonine-protein kinase STK11 (Homo sapiens) (UniProt Q15831)
[12] = biological target: Testis-specific serine/threonine-protein kinase 3 (Homo sapiens) (UniProt Q96PN8)
[13] = biological target: Serine/threonine-protein kinase Sgk1 (Homo sapiens) (UniProt O00141)
[14] = biological target: SNF-related serine/threonine-protein kinase (Homo sapiens) (UniProt Q9NRH2)
[15] = biological target: Fibroblast growth factor receptor 2 (Homo sapiens) (UniProt P21802)
[16] = biological target: Tyrosine-protein kinase receptor UFO (Homo sapiens) (UniProt P30530)
[17] = biological target: Death-associated protein kinase 3 (Homo sapiens) (UniProt O43293)
[18] = biological target: Receptor-interacting serine/threonine-protein kinase 4 (Homo sapiens) (UniProt P57078)
Chain of Receptor-interacting serine/threonine-protein kinase 4 (Homo sapiens) (P57078 whole entry): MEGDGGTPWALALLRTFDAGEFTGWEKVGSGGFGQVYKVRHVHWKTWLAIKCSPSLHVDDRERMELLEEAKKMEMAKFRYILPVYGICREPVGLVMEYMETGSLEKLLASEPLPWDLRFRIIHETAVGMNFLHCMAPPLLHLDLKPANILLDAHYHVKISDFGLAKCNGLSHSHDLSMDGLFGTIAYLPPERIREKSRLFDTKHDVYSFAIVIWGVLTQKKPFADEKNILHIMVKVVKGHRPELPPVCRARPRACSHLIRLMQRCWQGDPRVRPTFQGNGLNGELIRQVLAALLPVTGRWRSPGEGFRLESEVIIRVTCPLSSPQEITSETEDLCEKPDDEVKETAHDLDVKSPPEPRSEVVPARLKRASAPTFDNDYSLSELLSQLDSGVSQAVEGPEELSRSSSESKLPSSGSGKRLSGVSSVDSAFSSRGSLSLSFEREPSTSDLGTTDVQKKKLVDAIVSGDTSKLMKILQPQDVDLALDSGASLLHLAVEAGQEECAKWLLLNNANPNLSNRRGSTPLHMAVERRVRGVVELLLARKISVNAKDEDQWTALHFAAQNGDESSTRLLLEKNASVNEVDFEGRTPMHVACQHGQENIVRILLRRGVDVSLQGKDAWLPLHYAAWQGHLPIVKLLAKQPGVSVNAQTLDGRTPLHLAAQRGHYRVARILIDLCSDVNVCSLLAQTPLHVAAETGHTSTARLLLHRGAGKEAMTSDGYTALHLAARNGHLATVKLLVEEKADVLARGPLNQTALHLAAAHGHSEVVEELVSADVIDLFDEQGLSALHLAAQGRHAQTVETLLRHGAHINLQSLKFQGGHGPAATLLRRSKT

[19] = biological target: TRAF2 and NCK-interacting protein kinase (Homo sapiens) (UniProt Q9UKE5)
[20] = biological target: Serine/threonine-protein kinase Nek5 (Homo sapiens) (UniProt Q6P3R8)
[21] = biological target: Ephrin type-A receptor 8 (Homo sapiens) (UniProt P29322)
[22] = biological target: cAMP-dependent protein kinase catalytic subunit PRKX (Homo sapiens) (UniProt P51817)
[23] = biological target: SRSF protein kinase 1 (Homo sapiens) (UniProt Q96SB4)
[24] = biological target: Calcium/calmodulin-dependent protein kinase type II subunit alpha (Homo sapiens) (UniProt Q9UQM7)
[25] = biological target: Cyclin-dependent kinase 3 (Homo sapiens) (UniProt Q00526)
Chain of Cyclin-dependent kinase 3 (Homo sapiens) (Q00526 whole entry, looked up): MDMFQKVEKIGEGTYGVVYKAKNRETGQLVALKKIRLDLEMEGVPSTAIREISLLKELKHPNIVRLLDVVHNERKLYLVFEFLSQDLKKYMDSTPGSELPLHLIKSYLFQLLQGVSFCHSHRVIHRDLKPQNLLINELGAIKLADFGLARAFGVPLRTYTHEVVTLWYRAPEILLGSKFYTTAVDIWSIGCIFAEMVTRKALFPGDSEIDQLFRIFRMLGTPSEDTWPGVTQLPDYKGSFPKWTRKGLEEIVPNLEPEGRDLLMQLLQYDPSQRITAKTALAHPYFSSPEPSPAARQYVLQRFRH

[26] = biological target: Mitogen-activated protein kinase 4 (Homo sapiens) (UniProt P31152)
Chain of Mitogen-activated protein kinase 4 (Homo sapiens) (P31152 whole entry, the tested form may be a part): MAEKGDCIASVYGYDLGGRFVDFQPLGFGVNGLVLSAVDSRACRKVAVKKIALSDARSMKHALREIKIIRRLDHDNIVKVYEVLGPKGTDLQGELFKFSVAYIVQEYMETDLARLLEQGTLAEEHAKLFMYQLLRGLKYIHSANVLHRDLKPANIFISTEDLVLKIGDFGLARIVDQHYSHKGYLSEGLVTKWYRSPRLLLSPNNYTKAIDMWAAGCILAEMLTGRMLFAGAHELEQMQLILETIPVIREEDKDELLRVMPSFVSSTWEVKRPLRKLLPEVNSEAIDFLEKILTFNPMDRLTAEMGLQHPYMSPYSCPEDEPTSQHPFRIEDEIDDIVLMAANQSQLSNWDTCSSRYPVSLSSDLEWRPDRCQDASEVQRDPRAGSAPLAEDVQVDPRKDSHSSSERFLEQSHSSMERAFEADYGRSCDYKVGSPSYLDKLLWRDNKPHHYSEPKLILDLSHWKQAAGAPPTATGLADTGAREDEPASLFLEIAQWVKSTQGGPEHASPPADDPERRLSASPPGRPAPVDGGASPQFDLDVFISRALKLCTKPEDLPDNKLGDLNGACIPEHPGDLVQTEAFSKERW

[27] = biological target: Discoidin domain-containing receptor 2 (Homo sapiens) (UniProt Q16832)
[28] = tested on: Phosphatidylinositol 4,5-bisphosphate 3-kinase catalytic subunit alpha isoform (Homo sapiens), P42336 [E545K]
Chain of Phosphatidylinositol 4,5-bisphosphate 3-kinase catalytic subunit alpha isoform (Homo sapiens), P42336 [E545K] (P42336 whole entry E545K, canonical isoform): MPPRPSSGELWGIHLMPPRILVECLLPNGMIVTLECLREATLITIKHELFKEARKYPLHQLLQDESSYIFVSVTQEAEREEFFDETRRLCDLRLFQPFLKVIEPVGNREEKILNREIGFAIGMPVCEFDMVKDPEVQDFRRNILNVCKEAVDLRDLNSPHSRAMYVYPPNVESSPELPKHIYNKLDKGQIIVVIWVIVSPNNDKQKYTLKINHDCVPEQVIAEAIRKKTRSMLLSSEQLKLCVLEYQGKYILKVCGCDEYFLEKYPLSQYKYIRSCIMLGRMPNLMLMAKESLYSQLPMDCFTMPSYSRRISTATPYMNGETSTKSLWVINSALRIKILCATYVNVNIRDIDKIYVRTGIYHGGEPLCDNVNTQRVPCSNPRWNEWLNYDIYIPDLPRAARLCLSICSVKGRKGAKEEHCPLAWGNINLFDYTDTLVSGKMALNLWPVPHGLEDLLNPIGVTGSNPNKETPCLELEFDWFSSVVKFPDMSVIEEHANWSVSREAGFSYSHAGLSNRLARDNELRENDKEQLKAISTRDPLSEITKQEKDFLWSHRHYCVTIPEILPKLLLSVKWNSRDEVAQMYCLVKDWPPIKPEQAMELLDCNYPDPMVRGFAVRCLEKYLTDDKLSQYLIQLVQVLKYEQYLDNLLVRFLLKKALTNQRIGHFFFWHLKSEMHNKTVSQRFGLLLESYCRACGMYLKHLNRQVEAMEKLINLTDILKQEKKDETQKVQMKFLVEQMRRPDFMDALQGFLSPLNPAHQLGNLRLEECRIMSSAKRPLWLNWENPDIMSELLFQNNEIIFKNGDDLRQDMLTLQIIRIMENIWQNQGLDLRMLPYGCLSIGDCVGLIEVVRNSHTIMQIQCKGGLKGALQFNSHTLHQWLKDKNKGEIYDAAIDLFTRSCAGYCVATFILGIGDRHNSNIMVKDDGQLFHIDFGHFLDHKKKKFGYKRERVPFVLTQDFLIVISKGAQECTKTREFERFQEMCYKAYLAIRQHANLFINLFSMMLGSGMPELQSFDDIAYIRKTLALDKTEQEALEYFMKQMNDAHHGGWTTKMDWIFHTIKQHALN

[29] = biological target: Muscarinic acetylcholine receptor M3 (Homo sapiens) (UniProt P20309); conditions: Compound concentration 10.0 uM
[30] = biological target: ALK tyrosine kinase receptor (Homo sapiens) (UniProt Q9UM73)
[31] = biological target: 5-hydroxytryptamine receptor 2B (Homo sapiens, UniProt P41595); conditions: Compound concentration 10.0 uM
[32] = biological target: Serine/threonine-protein kinase VRK2 (Homo sapiens) (UniProt Q86Y07)
[33] = biological target: Ephrin type-A receptor 1 (Homo sapiens) (UniProt P21709)
[34] = tested on: Tyrosine-protein kinase ABL1 (Homo sapiens), P00519 [F317I]
Chain of Tyrosine-protein kinase ABL1 (Homo sapiens), P00519 [F317I] (P00519 whole entry F317I): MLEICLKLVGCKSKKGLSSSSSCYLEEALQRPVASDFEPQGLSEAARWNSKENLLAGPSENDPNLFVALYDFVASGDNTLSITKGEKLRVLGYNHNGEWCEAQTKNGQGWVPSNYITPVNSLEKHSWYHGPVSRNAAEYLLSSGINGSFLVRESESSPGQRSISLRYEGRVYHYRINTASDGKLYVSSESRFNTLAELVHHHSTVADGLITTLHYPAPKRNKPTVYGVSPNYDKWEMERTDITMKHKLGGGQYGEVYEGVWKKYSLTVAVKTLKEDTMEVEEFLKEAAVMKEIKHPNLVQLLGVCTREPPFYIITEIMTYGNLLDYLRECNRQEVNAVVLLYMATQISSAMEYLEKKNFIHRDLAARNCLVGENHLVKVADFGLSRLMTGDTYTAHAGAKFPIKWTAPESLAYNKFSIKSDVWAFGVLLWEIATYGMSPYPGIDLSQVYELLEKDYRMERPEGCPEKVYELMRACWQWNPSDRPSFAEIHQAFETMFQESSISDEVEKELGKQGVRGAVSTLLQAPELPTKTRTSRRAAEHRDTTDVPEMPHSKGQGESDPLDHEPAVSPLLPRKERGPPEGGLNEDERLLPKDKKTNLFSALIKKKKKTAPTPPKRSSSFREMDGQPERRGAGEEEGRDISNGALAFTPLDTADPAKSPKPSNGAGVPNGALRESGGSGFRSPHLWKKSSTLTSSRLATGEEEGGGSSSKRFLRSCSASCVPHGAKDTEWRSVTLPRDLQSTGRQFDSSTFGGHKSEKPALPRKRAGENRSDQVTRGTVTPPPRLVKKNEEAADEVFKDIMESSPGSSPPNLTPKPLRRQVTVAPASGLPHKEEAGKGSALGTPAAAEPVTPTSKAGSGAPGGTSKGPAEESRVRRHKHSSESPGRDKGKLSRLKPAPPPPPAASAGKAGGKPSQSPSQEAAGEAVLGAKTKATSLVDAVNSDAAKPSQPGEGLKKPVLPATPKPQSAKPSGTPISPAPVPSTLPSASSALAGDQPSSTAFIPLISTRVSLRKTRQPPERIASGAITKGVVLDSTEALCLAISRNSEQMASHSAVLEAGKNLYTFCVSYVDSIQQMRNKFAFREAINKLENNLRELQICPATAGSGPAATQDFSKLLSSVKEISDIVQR

[35] = biological target: cAMP-dependent protein kinase catalytic subunit beta (Homo sapiens) (UniProt P22694)
[36] = tested on: Epidermal growth factor receptor (Homo sapiens), P00533 [UNDEFINED MUTATION]
[37] = biological target: Dual specificity testis-specific protein kinase 1 (Homo sapiens) (UniProt Q15569)
[38] = biological target: SRSF protein kinase 2 (Homo sapiens) (UniProt P78362)
[39] = biological target: Ephrin type-B receptor 4 (Homo sapiens) (UniProt P54760)
[40] = biological target: Mitogen-activated protein kinase kinase kinase 1 (Homo sapiens) (UniProt Q13233)
[41] = biological target: Cyclin-dependent kinase 4 (Homo sapiens) (UniProt P11802)
[42] = tested on: Mast/stem cell growth factor receptor Kit (Homo sapiens), P10721 [D816H]
[43] = tested on: Mast/stem cell growth factor receptor Kit (Homo sapiens), P10721 [L576P]
[44] = biological target: Mitogen-activated protein kinase kinase kinase 5 (Homo sapiens) (UniProt Q99683)
[45] = biological target: Receptor tyrosine-protein kinase erbB-3 (Homo sapiens) (UniProt P21860)
[46] = Compound concentration 1000.0 nM
[47] = Compound concentration 100.0 nM

**Q.** What does the source list for C[C@H](NC(=O)Nc1cc2[nH]ncc2c(CO)n1)c1ccccn1 [ERKi-NC]?
**A.** residual activity [1, 46]: 37.7%; residual activity [2, 46]: 100%; residual activity [3, 46]: 100%; residual activity [4, 46]: 100%; residual activity [5, 46]: 100%; residual activity [6, 46]: 100%; residual activity [7, 46]: 100%; residual activity [8, 46]: 100%; inhibition [9]: 14.2%; residual activity [10, 46]: 100%; residual activity [11, 46]: 100%; residual activity [12, 46]: 100%; residual activity [13, 46]: 97.4%; residual activity [14, 46]: 100%; residual activity [15, 46]: 62%; residual activity [16, 46]: 100%; residual activity [17, 46]: 100%; residual activity [18, 46]: 100%; residual activity [19, 46]: 100%; residual activity [20, 46]: 84.3%; residual activity [21, 46]: 100%; residual activity [22, 46]: 100%; residual activity [23, 46]: 100%; residual activity [24, 46]: 100%; residual activity [25, 46]: 100%; residual activity [26, 46]: 84.7%; residual activity [27, 46]: 94.3%; residual activity [28, 46]: 74.9%; inhibition [29]: -1.84%; residual activity [30, 46]: 85.4%; inhibition [31]: 90.9%; residual activity [32, 46]: 100%; residual activity [33, 46]: 100%; residual activity [34, 46]: 100%; residual activity [35, 46]: 91.5%; residual activity [36, 46]: 100%; residual activity [37, 46]: 100%; residual activity [38, 46]: 100%; residual activity [39, 46]: 100%; residual activity [40, 46]: 95.1%; residual activity [41, 46]: 74.2%; residual activity [42, 46]: 89.4%; residual activity [43, 46]: 100%; residual activity [44, 46]: 100%; residual activity [45, 46]: 60.6%

**Q.** With C[C@@H](NC(=O)Nc1cc2[nH]ncc2c(CO)n1)c1ccccc1 [ERKi] as the compound, how does the residual activity [1, 47] read?
**A.** 100%

**Q.** What about the residual activity [2, 47] of the same compound?
**A.** 89.3%

**Q.** What about the residual activity [3, 47] of the same compound?
**A.** 81%

**Q.** And the residual activity [4, 47]?
**A.** 76.1%

**Q.** What about the residual activity [5, 47] of the same compound?
**A.** 100%

**Q.** What about the residual activity [6, 47] of the same compound?
**A.** 91.9%

**Q.** What about the residual activity [7, 47] of the same compound?
**A.** 52.5%

**Q.** And the residual activity [8, 47]?
**A.** 100%

**Q.** And the inhibition [9]?
**A.** -3.22%

**Q.** What about the residual activity [10, 47] of the same compound?
**A.** 79.5%

**Q.** And the residual activity [11, 47]?
**A.** 91.2%

**Q.** What about the residual activity [12, 47] of the same compound?
**A.** 91.1%

**Q.** What about the residual activity [13, 47] of the same compound?
**A.** 62.5%

**Q.** What about the residual activity [14, 47] of the same compound?
**A.** 100%

**Q.** And the residual activity [15, 47]?
**A.** 100%

**Q.** And the residual activity [16, 47]?
**A.** 77.9%

**Q.** And the residual activity [17, 47]?
**A.** 77.4%

**Q.** What about the residual activity [18, 47] of the same compound?
**A.** 76%

**Q.** And the residual activity [19, 47]?
**A.** 95.8%

**Q.** What about the residual activity [20, 47] of the same compound?
**A.** 97.6%

**Q.** What about the residual activity [21, 47] of the same compound?
**A.** 89.8%

**Q.** And the residual activity [22, 47]?
**A.** 46.1%

**Q.** And the residual activity [23, 47]?
**A.** 85.5%

**Q.** And the residual activity [24, 47]?
**A.** 73.5%

**Q.** What about the residual activity [25, 47] of the same compound?
**A.** 86.1%

**Q.** What about the residual activity [26, 47] of the same compound?
**A.** 98.3%

**Q.** What about the residual activity [27, 47] of the same compound?
**A.** 98.5%

**Q.** And the residual activity [28, 47]?
**A.** 80.5%

**Q.** And the inhibition [29]?
**A.** -5.17%

**Q.** And the residual activity [30, 47]?
**A.** 89.9%

**Q.** What about the inhibition [31] of the same compound?
**A.** 13.1%

**Q.** What about the residual activity [32, 47] of the same compound?
**A.** 76.3%

**Q.** And the residual activity [33, 47]?
**A.** 100%

**Q.** And the residual activity [34, 47]?
**A.** 100%

**Q.** And the residual activity [35, 47]?
**A.** 77%

**Q.** What about the residual activity [36, 47] of the same compound?
**A.** 92.2%

**Q.** And the residual activity [37, 47]?
**A.** 100%

**Q.** What about the residual activity [38, 47] of the same compound?
**A.** 61.2%

**Q.** And the residual activity [39, 47]?
**A.** 87.6%

**Q.** What about the residual activity [40, 47] of the same compound?
**A.** 100%

**Q.** What about the residual activity [41, 47] of the same compound?
**A.** 86.6%

**Q.** What about the residual activity [42, 47] of the same compound?
**A.** 86.9%

**Q.** What about the residual activity [43, 47] of the same compound?
**A.** 72.1%

**Q.** What about the residual activity [44, 47] of the same compound?
**A.** 100%

**Q.** What about the residual activity [45, 47] of the same compound?
**A.** 99%
